Like-named read-outs stand apart in the source and are kept apart here.
Experiments:
[1] = target: T1, HDAC1 (Homo sapiens, UniProt Q13547); assay: HDAC1 inhibition, modified Fluor-de-Lys assay; type: biochemical; details: 3 h pre-incubation, 0.3 nM enzyme, 20 μM substrate BML-KI104; read-out: HDAC-1 IC50
T1 construct: FLAG (C)
Description: (§1) Human HDAC Enzyme Inhibitor FLUOR-DE-LYS Assay Materials
(§2) Recombinant human HDAC1, HDAC2, and HDAC3/SMRT heterodimer were prepared by Merck Research Laboratories. […] The eluted protein was then passed over an anti-HDAC1 immunoaffinity column to remove any complexes containing HDAC1. […]
(§3) The histone deacetylase activities of HDAC1, HDAC2, HDAC3, HDAC6, and HDAC8 were measured in modified Fluor-de-Lys assays in 384-well format. In this assay, HDAC enzymes are initially incubated with an ε-acetyl (or -trifluoroacetyl)-L-lysine-containing substrate with a C-terminal amide having aminomethylcoumarin as the amine component. HDACs cleave the ε-acetyl group, rendering the resulting product susceptible to AMC cleavage by trypsin. The released AMC is then detected by its fluorescence.
(§4) The HDAC 1, 2 assays employed buffer A, which contained 20 mM HEPES, pH 8.0, 1 mM MgCl2, 137 mM NaCl, 2.7 mM KCl, 0.05% BSA. The HDAC3/SMRT assay employed buffer B, consisting of 20 mM HEPES, pH 8.0, 1 mM MgCl2, 50 mM NaCl, 2.7 mM KCl, 0.05% BSA, 0.005% Tween 20, and 10 μM IP4. The HDAC6 assay employed buffer C, consisting of 20 mM HEPES, pH 8.0, 1 mM MgCl2, 137 mM NaCl, 2.7 mM KCl, 0.5 mM TCEP (Calbiochem) and 0.05% BSA. The HDAC8 assay employed buffer D, consisting of 20 mM HEPES, pH 8.0, 1 mM MgCl2, 100 mM NaCl, 20 mM KCl, 0.1% n-octyl-β-D-glucoside (Anatrace, Maumee, Ohio) and 0.05% BSA. All steps were performed at room temperature (23° C.). The assay was performed by pre-incubating serial dilutions of test compounds with the target HDAC prior to initiation with substrate. Each compound was titrated in a 10-point dose response, using a 1:3 fold dilution scheme, with 0.15 ul of solution added by ECHO555 to the plate, followed by the addition of 20 μl of the appropriate HDAC isoform diluted in appropriate assay buffer. […] Final conditions used for each assay were: 1. HDAC 1, 0.3 nM total enzyme, 20 μM substrate BML-KI104; 2. HDAC 2, 1.5 nM total enzyme, 40 μM substrate BML-KI104; 3. HDAC 3/SMRT, 0.3 nM total enzyme, 20 μM substrate BML-KI104; 4. HDAC 6, 1.3 nM total enzyme, 2.5 μM substrate BML-KI104; 5. HDAC 8, 1.3 nM total enzyme, 200 μM substrate BML-KI178; the final high dose of test compound was 30 μM. For potent compounds, 900 nM was used as the final high dose. The reactions were stopped and developed by addition of 30 ul of HDAC developer solution containing a saturating level of HDAC inhibitor as follows: 1.

[2] = target: T2, HDAC3/SMRT heterodimer (Homo sapiens, UniProt O15379); assay: HDAC3/SMRT inhibition, modified Fluor-de-Lys assay; type: biochemical; details: 3 h pre-incubation, 0.3 nM enzyme, 20 μM substrate BML-KI104, read-out: HDAC-3 IC50
T2 construct: FLAG (C)
T2 sequence (O15379 whole entry): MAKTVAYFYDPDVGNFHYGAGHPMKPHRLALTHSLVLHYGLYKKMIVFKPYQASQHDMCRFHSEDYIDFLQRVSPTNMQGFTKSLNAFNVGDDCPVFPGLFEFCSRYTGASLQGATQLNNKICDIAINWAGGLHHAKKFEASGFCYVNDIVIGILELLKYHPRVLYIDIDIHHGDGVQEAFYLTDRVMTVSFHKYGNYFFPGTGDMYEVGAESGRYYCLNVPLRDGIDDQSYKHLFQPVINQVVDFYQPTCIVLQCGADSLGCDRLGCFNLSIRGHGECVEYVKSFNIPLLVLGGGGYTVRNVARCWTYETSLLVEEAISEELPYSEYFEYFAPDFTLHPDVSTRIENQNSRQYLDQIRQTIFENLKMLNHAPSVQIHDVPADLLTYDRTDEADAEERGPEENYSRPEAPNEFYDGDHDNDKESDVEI
T2 sequence (Q9Y618 1-899 partner limits assumed): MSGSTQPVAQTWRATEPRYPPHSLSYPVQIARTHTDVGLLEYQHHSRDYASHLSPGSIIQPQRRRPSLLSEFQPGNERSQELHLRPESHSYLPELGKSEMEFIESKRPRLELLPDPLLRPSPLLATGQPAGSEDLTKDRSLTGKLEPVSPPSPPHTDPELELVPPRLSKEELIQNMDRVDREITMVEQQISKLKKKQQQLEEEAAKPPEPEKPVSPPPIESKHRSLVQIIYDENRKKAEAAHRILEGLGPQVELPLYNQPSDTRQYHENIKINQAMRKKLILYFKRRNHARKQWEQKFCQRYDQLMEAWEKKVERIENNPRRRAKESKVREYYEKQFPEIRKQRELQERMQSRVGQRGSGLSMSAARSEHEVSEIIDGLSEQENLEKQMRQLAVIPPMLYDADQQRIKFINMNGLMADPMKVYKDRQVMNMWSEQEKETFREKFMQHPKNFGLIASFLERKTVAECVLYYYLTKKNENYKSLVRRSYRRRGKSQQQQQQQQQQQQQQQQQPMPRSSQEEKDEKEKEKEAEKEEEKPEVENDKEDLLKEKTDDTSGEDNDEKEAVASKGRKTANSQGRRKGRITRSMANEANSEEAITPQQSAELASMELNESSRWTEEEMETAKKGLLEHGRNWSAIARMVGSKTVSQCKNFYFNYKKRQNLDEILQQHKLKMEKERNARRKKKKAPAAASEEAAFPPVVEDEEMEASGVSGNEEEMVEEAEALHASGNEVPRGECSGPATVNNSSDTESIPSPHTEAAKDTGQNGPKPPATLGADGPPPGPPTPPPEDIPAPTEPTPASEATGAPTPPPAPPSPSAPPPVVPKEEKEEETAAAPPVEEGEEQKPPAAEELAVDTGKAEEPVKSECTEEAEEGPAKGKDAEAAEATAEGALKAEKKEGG
Description: as §1, §2, §3, §4

[3] = target: T3, HDAC2 (Homo sapiens, UniProt Q92769); assay: HDAC2 inhibition, modified Fluor-de-Lys assay; type: biochemical; details: 3 h pre-incubation, 40 μM substrate BML-KI104, read-out: HDAC-2 IC50
T3 construct: Full length human HDAC2-FLAG was expressed in baculovirus infected Sf9 cells; FLAG (C); host or cells: baculovirus infected Sf9 cells
T3 sequence (Q92769 whole entry): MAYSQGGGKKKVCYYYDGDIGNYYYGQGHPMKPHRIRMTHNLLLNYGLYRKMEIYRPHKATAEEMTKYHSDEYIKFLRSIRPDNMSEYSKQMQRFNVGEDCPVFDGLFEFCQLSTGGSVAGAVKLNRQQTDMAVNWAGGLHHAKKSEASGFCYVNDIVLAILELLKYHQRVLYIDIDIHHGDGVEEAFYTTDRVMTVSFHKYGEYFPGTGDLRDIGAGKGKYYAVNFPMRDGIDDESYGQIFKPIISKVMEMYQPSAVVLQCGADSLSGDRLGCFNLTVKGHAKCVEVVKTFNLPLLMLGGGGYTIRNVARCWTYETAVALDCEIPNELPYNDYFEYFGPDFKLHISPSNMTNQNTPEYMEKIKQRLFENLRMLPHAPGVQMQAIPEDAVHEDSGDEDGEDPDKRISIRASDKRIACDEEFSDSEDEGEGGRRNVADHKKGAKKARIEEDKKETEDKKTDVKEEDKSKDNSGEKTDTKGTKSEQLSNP
Description: as §1, §2, §3, §4

[4] = test system: KARN cells (Jurkat 2C4); assay: KARN assay (luciferase induction); type: cell-based; details: Jurkat, ~20 hr, 100% induction = 2 μM SAHA
Description: KARN cells (Jurkat 2C4) were licensed from the laboratory of Dr. John Kam, Case Western Reserve University, School of Medicine. […] An atmosphere of 5% CO2 and 90% humidity was used for all culture work. Cells were split and reseeded into T175 flasks at a density of 0.2×10^6 cells/ml, in 40 ml of media, every 3-4 days.
Day 1: After the 3-4 day growth period, the cells were transferred from the T175 flask to a 50 ml conical tube and gently pelleted at 1000 rpm for 5 minutes. […] These flasks were returned to the incubator.
Day 2: Cell Preparation: The next day, the cells were transferred from each T175 flask to an individual 50 ml conical tube and gently pelleted at 1000 rpm for 5 minutes. The cells were gently resuspended in assay media (30 ml) and pelleted again. […] The cells were counted using the ViCell (Beckman Coulter, Brea, Calif.) and diluted as necessary. A Multidrop (Combi, Thermo Scientific, Waltham, Mass.) with a sterile head was used to seed the cells into the wells of a 384-well solid black plate with lid (Perkin Elmer, Waltham, Mass., catalog number 6007660) at 4000 cells/30 μl/well for the 5% NHS assay media and 6000 cells/30 μl/well for 0.1% NHS assay. The plates were covered and returned to the incubator prior to compound addition.
Compound Preparation: Solutions of control inhibitor suberoylanilide hydroxamic acid (SAHA; Sigma, catalog number SML0061) and test compounds in 100% DMSO were titrated into 384-well polypropylene plates (Labcyte, San Jose, Calif., catalog number P-05525) using a 20-point dose response and 2-fold dilutions. The reference compounds, DMSO and SAHA were then added to the compound plate. Using the Access system (Labcyte), 120 nl of these inhibitor and control solutions were added to the individual wells of the plates containing the cells, and the plates were then returned to the incubator for ˜20 hr (range from 18-24 hr). The final high concentration for SAHA and the test compounds in the assays was 40 μM. The final DMSO concentration in all wells was 0.4%. The minimal induction reference compound used was DMSO and the maximal induction reference compound used was SAHA (2 μM final concentration in the assay).
Day 3: The luciferase detection reagent was prepared by transferring the contents of one bottle of Steady-Glo buffer to one bottle of Steady-Glo substrate (Steady-Glo Luciferase Assay System, Promega, Madison, […]., catalog number E2520), followed by gently mixing until the substrate was thoroughly dissolved and the solution was equilibrated to room temperature. The cell culture assay plates were removed from the incubator and brought to room temperature (15 min). The Steady-Glo Reagent was added to the plates (30 μl/well), which were then covered with a black lid and incubated for 10 minutes at room temperature. The plates were then read for luminescence on an Envision (Perkin Elmer) using the ultrasensitive mode (US LUM), […] and 384-well aperture. Luminescence counts in the DMSO reference wells were considered as 0% induction, while those in the 2 μM SAHA reference wells were considered as 100% induction. Dose response curves were plotted as test compound concentration (X-axis) vs. percent activation (Y-axis) using a 4-parameter fit based on the Levenberg-Marquardt algorithm.

[5] = read-out: Karn EC50 with 0.1% NHS, 0.1% normal human serum
[6] = read-out: Karn EC50 with 5% NHS, 5% normal human serum

T1 sequence (Q13547 whole entry): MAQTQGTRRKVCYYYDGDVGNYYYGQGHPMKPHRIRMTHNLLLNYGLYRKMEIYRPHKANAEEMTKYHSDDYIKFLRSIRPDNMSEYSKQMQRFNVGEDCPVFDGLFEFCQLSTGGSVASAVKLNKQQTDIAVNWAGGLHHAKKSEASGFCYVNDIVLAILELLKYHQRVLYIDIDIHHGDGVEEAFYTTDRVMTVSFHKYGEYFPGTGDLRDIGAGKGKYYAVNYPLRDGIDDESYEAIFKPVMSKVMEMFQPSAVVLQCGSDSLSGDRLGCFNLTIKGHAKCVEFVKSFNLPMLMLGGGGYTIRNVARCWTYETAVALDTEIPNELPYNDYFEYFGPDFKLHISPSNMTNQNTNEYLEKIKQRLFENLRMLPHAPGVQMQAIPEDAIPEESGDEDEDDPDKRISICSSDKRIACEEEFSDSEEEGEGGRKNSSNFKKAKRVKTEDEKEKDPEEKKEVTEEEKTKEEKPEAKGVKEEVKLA

Q: What does the source list for `CCC(=O)CCCCC[C@@H]1NC(=O)[C@H]2CC23CCN(CCOCCn2ccc4cc(ccc4c2=O)-c2cnc1[nH]2)CC3` [Compound 4, (1^1S,4S)-4-(6-oxooctyl)-6^1,6^2-dihydro-5^1H-9-oxa-3-aza-6(6,2)-isoquinolina-12(4,1)-piperidina-5(2,5)-imidazola-1(1,2)-cyclopropanadodecaphane-6^1,2-dione]?
A: IC50 [1]: 0.61 nM; IC50 [2]: 7.1 nM; IC50 ([3]; […] enzyme): 35 nM; EC50 [4, 5]: > 40000 nM; EC50 [4, 6]: > 40000 nM

Q: For `CCC(=O)CCCCC[C@@H]1NC(=O)[C@H]2CC23CCN(CCCCN2C4CCC2c2cc(ccc24)-c2cnc1[nH]2)CC3` (stereo partly drawn) [Compound 10, (3S,6S)-6-(6-oxooctyl)-5,8,20,25,31-pentaazaheptacyclo[23.2.2.1˜7,10˜.1˜11,15˜.0˜1,3˜.0˜14,19˜0.0˜16,20˜]hentriaconta-7,9,11(30),12,14-pentaen-4-one], which IC50 [1] is on record?
A: Its IC50 is 19 nM.

Q: What about the IC50 [2] of the same compound?
A: The IC50 was 49 nM.

Q: What about the IC50 ([3]; 1.5 nM enzyme) of the same compound?
A: Its IC50 is 148 nM.

Q: And the EC50 [4, 5]?
A: The EC50 was 844 nM.

Q: What about the EC50 [4, 6] of the same compound?
A: Its EC50 is 867 nM.

Q: With `CCC(=O)CCCCC[C@@H]1NC(=O)[C@H]2CC23CCN(CCCCN2C4CCC2c2c(cccc24)-c2cnc1[nH]2)CC3` (stereo partly drawn) [Compound 2, (11S,4S)-4-(6-oxooctyl)-61,62,63,64-tetrahydro-51H-3-aza-6(5,9)-1,4-epiminonaphthalena-11(4,1)-piperidina-5(2,5)-imidazola-1(1,2)-cyclopropanaundecaphan-2-one] as the compound, how does the IC50 [1] read?
A: Its IC50 is 45 nM.

Q: And the IC50 [2]?
A: Its IC50 is 24 nM.

Q: And the IC50 ([3]; 1.5 nM enzyme)?
A: The IC50 was 176 nM.

Q: And the EC50 [4, 5]?
A: The EC50 was 6270 nM.

Q: What about the EC50 [4, 6] of the same compound?
A: Its EC50 is 9060 nM.

Q: What does the source list for `CCC(=O)CCCCC[C@H](NC(=O)[C@H]1CC12CCN(CC)CC2)c1[nH]c2nc1C(=O)NCCCCCc1cccc-2c1` [Compound 13, (S)-6-ethyl-N-((S)-7-oxo-1-((Z)-9-oxo-11H-8-aza-1(2,4)-imidazola-2(1,3)-benzenacyclononaphane-15-yl)nonyl)-6-azaspiro[2.5]octane-1-carboxamide]?
A: IC50 [1]: 109 nM; IC50 [2]: 103 nM; EC50 [4, 5]: > 40000 nM; EC50 [4, 6]: 12000 nM

Q: What does the source list for `CCC(=O)CCCCC[C@@H]1NC(=O)[C@H]2CC23CCN(C/C=C/CN2C4CCC2c2cc(ccc24)-c2cnc1[nH]2)CC3` (stereo partly drawn) [Compound 3, (1^1S,4S,E)-4-(6-oxooctyl)-6^1,6^2,6^3,6^4-tetrahydro-5^1H-3-aza-6(6,9)-1,4-epiminonaphthalena-11(4,1)-piperidina-5(2,5)-imidazola-1(1,2)-cyclopropanaundecaphan-8-en-2-one]?
A: IC50 [1]: 2.7 nM; IC50 [2]: 0.86 nM; IC50 ([3]; 1.5 nM enzyme): 7 nM; EC50 [4, 5]: 73 nM; EC50 [4, 6]: 76 nM

Q: What does the source list for `CCC(=O)CCCCC[C@@H]1NC(=O)[C@H]2CC23CCN(CCCOCCn2ccc4cc(ccc4c2=O)-c2cnc1[nH]2)CC3` [Compound 11, (3S,6S)-6-(6-oxooctyl)-21-oxa-5,8,18,25,32-pentaazahexacyclo[23.2.2.1˜7,10˜0.1˜11,15˜0.1˜14,18˜0.0˜1,3˜] dotriaconta-7,9,11(31),12,14,16-hexaene-4,30-dione]?
A: IC50 [1]: 0.11 nM; IC50 [2]: 2.6 nM; IC50 ([3]; […] enzyme): 22 nM; EC50 [4, 5]: > 40000 nM; EC50 [4, 6]: > 40000 nM

Q: Which results are given for `CCC(=O)CCCCC[C@@H]1NC(=O)[C@H]2CC23CCN(CCCCCCCCn2ccc4cc(ccc4c2=O)-c2cnc1[nH]2)CC3` [Compound 1, (3S,6S)-6-(6-oxooctyl)-5,8,18,27,34-pentaazahexacyclo[25.2.2.1˜7,10˜.1˜11,15˜.1˜14,18˜.0˜1,3˜]tetratriaconta-7,9,11(33),12,14,16-hexaene-4,32-dione]?
A: IC50 [1]: 0.2 nM; IC50 [2]: 0.061 nM; IC50 ([3]; […] enzyme): 0.43 nM; EC50 [4, 5]: 14 nM; EC50 [4, 6]: 16 nM

Q: What does the source list for `CCC(=O)CCCCC[C@@H]1NC(=O)CN(C)CCCCOCCCCn2ccc3cc(ccc3c2=O)-c2cnc1[nH]2` [Compound 6, (3S)-7-methyl-3-(6-oxooctyl)-11,12-dihydro-21H-12-oxa-4,7-diaza-1(6,2)-isoquinolina-2(5,2)-imidazolacyclohexadecaphane-11,5-dione]?
A: IC50 [1]: 28 nM; IC50 [2]: 248 nM; IC50 ([3]; […] enzyme): 595 nM; EC50 [4, 5]: 2500 nM; EC50 [4, 6]: 3510 nM

Q: Which IC50 [1] does the source give for `CCC(=O)CCCCC[C@@H]1NC(=O)[C@H]2CC23CCN(CCCCCOc2ccc4cc(ccc4n2)-c2cnc1o2)CC3` [Compound 9] here?
A: The IC50 was 24 nM.

Q: What about the IC50 [2] of the same compound?
A: Its IC50 is 150 nM.

Q: And the IC50 ([3]; […] enzyme)?
A: Its IC50 is 335 nM.

Q: And the EC50 [4, 5]?
A: Its EC50 is > 40000 nM.

Q: And the EC50 [4, 6]?
A: The EC50 was > 40000 nM.
